Molecular target: T1, Peroxisome proliferator-activated receptor alpha (Homo sapiens, UniProt Q07869)
T1 sequence (Q07869 whole entry): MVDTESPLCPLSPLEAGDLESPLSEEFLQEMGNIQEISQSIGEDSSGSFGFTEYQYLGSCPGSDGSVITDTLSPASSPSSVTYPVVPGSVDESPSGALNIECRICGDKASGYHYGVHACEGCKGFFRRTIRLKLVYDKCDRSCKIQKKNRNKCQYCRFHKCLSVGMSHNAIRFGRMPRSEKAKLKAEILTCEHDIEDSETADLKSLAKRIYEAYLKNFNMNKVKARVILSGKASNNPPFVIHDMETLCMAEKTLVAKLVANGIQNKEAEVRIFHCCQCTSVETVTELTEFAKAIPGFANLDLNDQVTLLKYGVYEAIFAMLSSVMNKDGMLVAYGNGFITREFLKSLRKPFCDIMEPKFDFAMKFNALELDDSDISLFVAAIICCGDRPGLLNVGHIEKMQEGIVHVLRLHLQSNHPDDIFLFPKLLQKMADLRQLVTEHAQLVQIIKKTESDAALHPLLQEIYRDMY

Row | SMILES | IC50
1 | Cc1ccc(NC(=O)c2cccc(S(=O)(=O)n3ccc4cccc(Cl)c43)c2)c(C(=O)O)c1 | 3.16 µM
2 | Cc1cccc(NC(=O)c2cccc(S(=O)(=O)N3CCc4ccccc4C3)c2)c1C(=O)O | > 10 µM
3 | COc1ccc2c(ccn2S(=O)(=O)c2cccc(C(=O)Nc3ccc(Cl)cc3C(=O)O)c2)c1 | 3.16 µM
4 | COc1cccc2ccn(S(=O)(=O)c3cccc(C(=O)Nc4ccc(C)cc4C(=O)O)c3)c12 | > 10 µM
5 | COc1ccc2c(ccn2S(=O)(=O)c2cccc(C(=O)Nc3ccc(C)cc3C(=O)O)c2)c1 | 7.94 µM
6 | Cc1ccc(NC(=O)c2cccc(S(=O)(=O)n3ccc4ccc(Cl)cc43)c2)c(C(=O)O)c1 | 3.16 µM
7 | O=C(O)COc1cccc2c1CCN(S(=O)(=O)c1cccc(C(=O)Nc3ccc(Cl)cc3C(=O)O)c1)C2 | 5.01 µM
8 | Cc1cccc(C(=O)O)c1NC(=O)c1cccc(S(=O)(=O)N2CCc3ccccc3C2)c1 | > 10 µM
9 | COc1ccc2ccn(S(=O)(=O)c3cccc(C(=O)Nc4ccc(C)cc4C(=O)O)c3)c2c1 | 3.98 µM
10 | COc1ccc2ccn(S(=O)(=O)c3cccc(C(=O)Nc4ccc(Cl)cc4C(=O)O)c3)c2c1 | 1.58 µM

Continued by falling IC50, values first:

Row | IC50 | SMILES
11 | 1.58 µM | Cc1ccc(NC(=O)c2cccc(S(=O)(=O)n3ccc4cccc(C)c43)c2)c(C(=O)O)c1
12 | 1.26 µM | COc1cccc2c1ccn2S(=O)(=O)c1cccc(C(=O)Nc2ccc(C)cc2C(=O)O)c1
13 | 1 µM | Cc1ccc(NC(=O)c2cccc(S(=O)(=O)n3ccc4c(C)cccc43)c2)c(C(=O)O)c1
14 | 1 µM | Cc1ccc(NC(=O)c2cccc(S(=O)(=O)n3ccc4cc(C)ccc43)c2)c(C(=O)O)c1
15 | 0.794 µM | COc1cccc2c1ccn2S(=O)(=O)c1cccc(C(=O)Nc2ccc(Cl)cc2C(=O)O)c1

Reference: ChEMBL document CHEMBL1141686, “Discovery of a novel class of PPARdelta partial agonists” (Bioorg Med Chem Lett, 2008)
